Columns and labels:
[1] = system: IκB-α and IκB-ε; experiment: Western blot of IκB-α/IκB-ε proteolysis in stimulated HUVEC; type: cell-based, human
Method: FIG. 5A: nuclear extracts from HUVEC stimulated with blood platelets (PLT; 2×10^8/ml) were examined by EMSA for NF-κB or Sp-1 binding, which is shown in brackets. FIG. 5B: cytosol extracts from cells stimulated with blood platelets were analysed by means of western blots. The proteins IκB-α, IκB-ε, IKK-α and IKK-β are indicated by arrow heads. α-Actin was used as a loading control. FIG. 5C: cytosol extracts from cells stimulated with IL-β (100 pg/ml) were examined by means of western blots. FIG. 5D: cells were incubated with TNF (1.67 ng/ml) and cytosol extracts were examined by means of western blots. The top arrow indicates the phosphorylated forms of IκB-α or IκB-ε. A representative blot is shown for all cases (n=3).
Cytosol extracts were isolated, and electrophoresis and blotting were carried out as described in the prior art (6, 7). After transfer, the membranes were incubated with antibodies to IκB-α (Santa Cruz Biotechnology, Heidelberg), IκB-ε (Prof. N. Rice, NIH, Frederick, Md.), IKK-α, IKK-β (Santa Cruz Biotechnology) or α-actin (Sigma). The proteins were visualised on X-ray film using a western blot chemiluminescence reagent (NEN Life Science Products). Protein sizes were confirmed by means of molecular weight standards (Amersham Pharmacia Biotech, Braunschweig, Bio-Rad, Munich). […]

[2] = system: IKK complex; experiment: Immunoprecipitation and kinase assay of IKK complex from stimulated HUVEC (GST-IκB-α phosphorylation); type: cell-based, human
Method: Cells were incubated as indicated and cytosol extracts were made. Immunoprecipitation (IP) with antikinase antibodies as indicated was followed by a kinase assay using the substrate GST.IκB-α in the presence of ^32P-ATP. A time-dependent phosphorylation of the substrate is shown in each case after stimulation of HUVEC with blood platelets (PLT; 2×10^8/ml) (FIG. 6A), IL-1β (100 pg/ml) (FIG. 6B) or TNF (1.67 ng/ml) (FIG. 6C). A representative experiment is shown for each case (n=3). FIG. 6D: the kinase assays were scanned and analysed densitometrically.
Cytosol extracts were subjected to immunoprecipitation (IP) (7) in TNT buffer containing 1 mM dithiothreitol, 0.5 μM 4-(2-aminoethyl)-benzenesulfonyl fluoride (AEBSF) and 0.75 μg/ml each of leupeptin, antipain, aprotinin, pepstatin A and chymostatin (Sigma). […] After washing three times with TNT and kinase buffer each time (20 mM HEPES, pH 8.0; 10 mM MgCl2, 100 μM Na3VO4; 20 mM β-glycerophosphate; 50 mM NaCl; 2 mM dithiothreitol; 0.5 μM AEBSF; 0.75 μg/ml each of leupeptin, antipain, aprotinin, pepstatin A, chymostatin), the precipitated proteins were analysed by a kinase assay. […] Proteins were analysed with PAGE and visualised by means of autoradiography. […]

IL-1β: cytokine used as stimulus of HUVEC, 100 pg/ml
beginning of IκB-α degradation after incubation [1]: 15 min
time of significant IκB-ε proteolysis [1]: 60 min
time for which IKK activation is maintained [2]: at least 90 minutes
time of IKK activation peak [2]: 45 min

From patent publication US20040241166A1, “Use of inhibitors of ikk-beta and method for discovery of said inhibitors” (priority 2001, published 2004)
